Experimental data as given in patent US11897867B2, “6-phenyl-4,5-dihydropyridazin-3(2H)-one derivatives as PDE3A and PDE3B inhibitors for treating cancer” (Bayer Aktiengesellschaft, priority 2017, dated 2024).

Columns and labels:
[1] = test system: SK-MEL-3 (melanoma); assay: Cell proliferation measurement (Cell Titer Glo), SK-MEL-3; assay type: cell-based; details: Homo sapiens, SK-MEL3, SK-MEL-3 cells, 72 h treatment, read-out: Anti-proliferation IC50 SK-MEL-3 (melanoma)
In short: (§1)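 Cells (1000/well; 500 for HeLa) plated overnight at 37 °C, then exposed to a ≥10-point compound dilution series for 72 h at 37 °C, DMSO 0.3% final as vehicle. Viability read by CellTiter-Glo luminescence; IC50 from 4-parameter fit against untreated wells.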

[2] = biological target: T1, human full length PDE3B (Homo sapiens, UniProt Q13370); assay: PDE3B enzyme inhibition (3H-cAMP Scintillation Proximity Assay); assay type: biochemical; details: PDE3B cell extract from Sf9 cells, 60 min room temperature; read-out: Target IC50 PDE3B IC50
T1 construct: Sf9 cells overexpressing human full length PDE3B; purchased SB Drug Discovery, UK; host or cells: Sf9 cells (cell extract)
T1 sequence (Q13370 whole entry): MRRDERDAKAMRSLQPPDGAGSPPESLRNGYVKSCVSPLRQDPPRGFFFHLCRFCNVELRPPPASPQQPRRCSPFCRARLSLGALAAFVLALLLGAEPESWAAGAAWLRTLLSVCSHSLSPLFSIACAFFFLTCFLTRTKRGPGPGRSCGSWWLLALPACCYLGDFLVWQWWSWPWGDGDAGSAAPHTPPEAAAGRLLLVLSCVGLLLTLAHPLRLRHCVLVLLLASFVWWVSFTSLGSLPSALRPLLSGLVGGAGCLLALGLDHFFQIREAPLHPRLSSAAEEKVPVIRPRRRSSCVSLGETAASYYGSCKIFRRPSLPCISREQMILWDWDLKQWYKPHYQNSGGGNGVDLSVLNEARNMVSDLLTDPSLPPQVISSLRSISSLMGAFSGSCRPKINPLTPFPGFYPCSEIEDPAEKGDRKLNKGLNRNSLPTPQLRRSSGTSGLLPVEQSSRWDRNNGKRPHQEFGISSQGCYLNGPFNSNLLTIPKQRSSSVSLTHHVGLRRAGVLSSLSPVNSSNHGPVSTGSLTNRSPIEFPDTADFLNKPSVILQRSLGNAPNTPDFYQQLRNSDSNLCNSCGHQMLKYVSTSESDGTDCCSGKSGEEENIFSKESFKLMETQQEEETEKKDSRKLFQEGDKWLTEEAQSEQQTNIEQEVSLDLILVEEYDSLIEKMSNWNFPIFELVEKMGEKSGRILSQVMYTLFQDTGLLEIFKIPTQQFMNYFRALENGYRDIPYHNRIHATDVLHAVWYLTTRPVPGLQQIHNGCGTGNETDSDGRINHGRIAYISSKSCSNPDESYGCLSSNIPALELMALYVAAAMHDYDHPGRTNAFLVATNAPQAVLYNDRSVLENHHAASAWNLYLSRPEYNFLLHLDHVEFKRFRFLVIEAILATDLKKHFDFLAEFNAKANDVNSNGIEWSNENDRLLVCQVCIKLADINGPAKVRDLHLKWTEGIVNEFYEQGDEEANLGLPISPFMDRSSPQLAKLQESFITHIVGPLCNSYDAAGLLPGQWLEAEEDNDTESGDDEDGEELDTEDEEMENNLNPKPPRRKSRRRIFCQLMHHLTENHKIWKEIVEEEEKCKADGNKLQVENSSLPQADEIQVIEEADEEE
In short: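 SPA with Sf9 cell extract overexpressing human full-length PDE3B, diluted for linear kinetics and <70% substrate turnover, in 50 mM Tris/HCl pH 7.5, 8.3 mM MgCl2, 1.7 mM EDTA, 0.2% BSA. [8-3H]cAMP substrate, 60 min at room temperature, stopped with yttrium SPA beads. IC50 from sigmoidal fit of % activity vs log concentration.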

[3] = test system: HeLa cells (cervical cancer); assay: Cell proliferation measurement (Cell Titer Glo), HeLa; assay type: cell-based; details: Homo sapiens, 72 h treatment, read-out: Anti-proliferation IC50 HeLa (Cervical cancer)
In short: as §1

[4] = biological target: T2, human full length PDE3A (Homo sapiens, UniProt Q14432); assay: PDE3A enzyme inhibition (3H-cAMP Scintillation Proximity Assay); assay type: biochemical; details: PDE3A cell extract from Sf9 cells, 60 min room temperature; read-out: Target IC50 PDE3A IC50
T2 construct: Sf9 cells overexpressing human full length PDE3A; purchased SB Drug Discovery, UK; host or cells: Sf9 cells (cell extract)
T2 sequence (Q14432 whole entry): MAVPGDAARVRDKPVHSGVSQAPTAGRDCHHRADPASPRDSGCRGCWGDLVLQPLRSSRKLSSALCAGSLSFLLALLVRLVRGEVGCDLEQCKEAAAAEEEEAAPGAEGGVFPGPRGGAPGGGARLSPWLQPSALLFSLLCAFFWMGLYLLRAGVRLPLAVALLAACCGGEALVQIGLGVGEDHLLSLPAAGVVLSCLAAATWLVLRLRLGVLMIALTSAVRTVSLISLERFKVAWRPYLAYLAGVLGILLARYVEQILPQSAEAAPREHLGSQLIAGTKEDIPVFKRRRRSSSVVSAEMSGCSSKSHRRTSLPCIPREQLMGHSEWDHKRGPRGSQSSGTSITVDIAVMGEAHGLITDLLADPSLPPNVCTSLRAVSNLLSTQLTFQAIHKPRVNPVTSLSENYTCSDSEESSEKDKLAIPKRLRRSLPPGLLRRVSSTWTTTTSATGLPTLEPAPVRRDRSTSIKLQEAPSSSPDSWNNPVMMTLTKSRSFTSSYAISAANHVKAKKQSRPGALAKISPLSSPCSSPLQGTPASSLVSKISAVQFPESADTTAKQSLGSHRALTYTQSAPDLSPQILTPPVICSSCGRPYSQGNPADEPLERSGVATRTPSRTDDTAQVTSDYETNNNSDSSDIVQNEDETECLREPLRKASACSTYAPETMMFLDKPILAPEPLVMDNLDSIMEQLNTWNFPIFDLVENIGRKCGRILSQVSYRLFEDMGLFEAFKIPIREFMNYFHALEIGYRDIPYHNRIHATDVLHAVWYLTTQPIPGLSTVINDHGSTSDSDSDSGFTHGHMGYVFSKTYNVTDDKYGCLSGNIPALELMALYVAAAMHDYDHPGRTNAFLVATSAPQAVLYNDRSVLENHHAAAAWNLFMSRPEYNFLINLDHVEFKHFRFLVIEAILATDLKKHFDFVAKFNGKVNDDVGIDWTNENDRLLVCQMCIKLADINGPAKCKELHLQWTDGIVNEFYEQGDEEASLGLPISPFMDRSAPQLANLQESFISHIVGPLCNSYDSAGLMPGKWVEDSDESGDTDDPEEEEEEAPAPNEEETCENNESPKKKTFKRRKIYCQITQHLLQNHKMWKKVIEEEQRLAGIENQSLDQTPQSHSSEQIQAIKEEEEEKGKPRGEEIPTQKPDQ
In short: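 Sf9 cell extract overexpressing human full-length PDE3A, diluted for linear kinetics (<70% substrate used), in 50 mM Tris/HCl pH 7.5, 8.3 mM MgCl2, 1.7 mM EDTA, 0.2% BSA. [8-3H]cAMP substrate, 60 min at room temperature, yttrium SPA bead read-out; IC50 from sigmoidal curves of % activity.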

IC50 [1]	IC50 [2]	IC50 [3]	IC50 [4]	SMILES
> 100 nM	65 nM	66.8 nM	95 nM	CCOc1ccccc1-c1ccc(C2=NNC(=O)CC2)cc1F [Example 52, 6-(2′-ethoxy-2-fluoro[1,1′-biphenyl]-4-yl)-4,5-dihydropyridazin-3(2H)-one]
11.1 nM	100 nM	5.59 nM	100 nM	O=C1CCC(c2ccc(-c3cc(F)c(F)cc3F)c(F)c2)=NN1 [Example 38, 6-(2,2′,4′,5′-tetrafluoro[1,1′-biphenyl]-4-yl)-4,5-dihydropyridazin-3(2H)-one]
> 100 nM	110 nM	86.4 nM	160 nM	O=C1CCC(c2ccc(-c3cncc(C(F)(F)F)c3)c(F)c2)=NN1 [Example 29, 6-{3-fluoro-4-[5-(trifluoromethyl)pyridin-3-yl]phenyl}-4,5-dihydropyridazin-3(2H)-one]
13.7 nM	310 nM	10.4 nM	370 nM	O=C1CCC(c2ccc(-c3ccoc3)c(F)c2)=NN1 [Example 45, 6-[3-fluoro-4-(furan-3-yl)phenyl]-4,5-dihydropyridazin-3(2H)-one]
43.5 nM	120 nM	27.6 nM	100 nM	O=C1CCC(c2ccc(-c3cccc4[nH]ccc34)c(F)c2)=NN1 [Example 75, 6-[3-fluoro-4-(1H-indol-4-yl)phenyl]-4,5-dihydropyridazin-3(2H)-one]
37.8 nM	380 nM	18.5 nM	190 nM	O=C1CCC(c2ccc(-c3cc(F)cc(F)c3)c(F)c2)=NN1 [Example 54, 6-(2,3′,5′-trifluoro[1,1′-biphenyl]-4-yl)-4,5-dihydropyridazin-3(2H)-one]
10.5 nM	73 nM	5.39 nM	66 nM	CCNc1ccc(C2=NNC(=O)CC2)cc1C(F)(F)F [Example 18, 6-[4-(Ethylamino)-3-(trifluoromethyl)phenyl]-4,5-dihydropyridazin-3(2H)-one]
23.1 nM	91 nM	12 nM	100 nM	COc1cccc(-c2ccc(C3=NNC(=O)CC3)cc2F)c1 [Example 64, 6-(2-fluoro-3′-methoxy[1,1′-biphenyl]-4-yl)-4,5-dihydropyridazin-3(2H)-one]
8.88 nM	41 nM	40.6 nM	63 nM	O=C1CCC(c2ccc(-c3cccc(O)c3)c(F)c2)=NN1 [Example 49, 6-(2-fluoro-3′-hydroxy[1,1′-biphenyl]-4-yl)-4,5-dihydropyridazin-3(2H)-one]
22.8 nM	160 nM	12.5 nM	420 nM	Cc1cc(F)ccc1-c1ccc(C2=NNC(=O)CC2)cc1C [Example 4, 6-(4′-Fluoro-2,2′-dimethylbiphenyl-4-yl)-4,5-dihydropyridazin-3(2H)-one]
6.25 nM	35 nM	4.27 nM	39 nM	O=C1CCC(c2ccc(-c3cccnc3F)c(F)c2)=NN1 [Example 72, 6-[3-fluoro-4-(2-fluoropyridin-3-yl)phenyl]-4,5-dihydropyridazin-3(2H)-one]
24.8 nM	67 nM	14.4 nM	66 nM	Cc1ncccc1-c1ccc(C2=NNC(=O)CC2)cc1F [Example 33, 6-[3-fluoro-4-(2-methylpyridin-3-yl)phenyl]-4,5-dihydropyridazin-3(2H)-one]
8.15 nM	215 nM	3.72 nM	385 nM	Cc1ccc(-c2ccc(C3=NNC(=O)CC3)cc2F)cc1 [Example 87, 6-(2-fluoro-4′-methyl[1,1′-biphenyl]-4-yl)-4,5-dihydropyridazin-3(2H)-one]
6.1 nM	140 nM	3.36 nM	130 nM	CC(C)=Cc1ccc(C2=NNC(=O)CC2)cc1F [Example 27, 6-[3-Fluoro-4-(2-methylprop-1-en-1-yl)phenyl]-4,5-dihydropyridazin-3(2H)-one]
8.4 nM	68 nM	5.23 nM	80 nM	O=C1CCC(c2ccc(-c3cc(F)ccc3F)c(F)c2)=NN1 [Example 42, 6-(2,2′,5′-trifluoro[1,1′-biphenyl]-4-yl)-4,5-dihydropyridazin-3(2H)-one]
11.6 nM	120 nM	7.82 nM	120 nM	O=C1CCC(c2ccc(-c3ccc(F)nc3)c(F)c2)=NN1 [Example 71, 6-[3-fluoro-4-(6-fluoropyridin-3-yl)phenyl]-4,5-dihydropyridazin-3(2H)-one]
3.39 nM	62 nM	1.96 nM	50 nM	O=C1CCC(c2ccc(-c3ccc(F)cc3F)c(F)c2)=NN1 [Example 55, 6-(2,2′,4′-trifluoro[1,1′-biphenyl]-4-yl)-4,5-dihydropyridazin-3(2H)-one]
2.99 nM	89 nM	1.29 nM	200 nM	CC1C2CC2CN1c1c(F)cc(C2=NNC(=O)CC2)cc1F (stereo not drawn) [Example 17, 6-{3,5-Difluoro-4-[2-methyl-3-azabicyclo[3.1.0]hex-3-yl]phenyl}-4,5-dihydropyridazin-3(2H)-one]
15 nM	300 nM	9.97 nM	350 nM	O=C1CCC(c2ccc(N3CC(O)C3)c(C(F)(F)F)c2)=NN1 [Example 24, 6-[4-(3-Hydroxyazetidin-1-yl)-3-(trifluoromethyl)phenyl]-4,5-dihydropyridazin-3(2H)-one]
> 100 nM	88 nM	42.3 nM	61 nM	Cc1ncc(-c2ccc(C3=NNC(=O)CC3)cc2C)cn1 [Example 92, 6-[3-methyl-4-(2-methylpyrimidin-5-yl)phenyl]-4,5-dihydropyridazin-3(2H)-one]
> 100 nM	32 nM	39.6 nM	42 nM	COc1ccccc1-c1ccc(C2=NNC(=O)CC2)cc1C [Example 111, 6-(2′-methoxy-2-methyl[1,1′-biphenyl]-4-yl)-4,5-dihydropyridazin-3(2H)-one]
89.3 nM	87 nM	53.3 nM	72 nM	Cc1cc(C2=NNC(=O)CC2)ccc1-c1cn[nH]c1 [Example 6, 6-[3-Methyl-4-(1H-pyrazol-4-yl)phenyl]-4,5-dihydropyridazin-3(2H)-one]
11.4 nM	62 nM	5.48 nM	110 nM	O=C1CCC(c2cc(F)c(N3CCC(F)(F)CC3)c(F)c2)=NN1 [Example 12, 6-[4-(4,4-Difluoropiperidin-1-yl)-3,5-difluorophenyl]-4,5-dihydropyridazin-3(2H)-one]
5.01 nM	49 nM	1.27 nM	90 nM	O=C1CCC(c2ccc(-c3ccc(F)cc3)c(F)c2)=NN1 [Example 8, 6-(2,4′-Difluorobiphenyl-4-yl)-4,5-dihydropyridazin-3(2H)-one]
60.7 nM	200 nM	9.32 nM	180 nM	Cc1cc(C2=NNC(=O)CC2)ccc1-c1cc(F)c(F)cc1F [Example 95, 6-(2′,4′,5′-trifluoro-2-methyl[1,1′-biphenyl]-4-yl)-4,5-dihydropyridazin-3(2H)-one]
67.6 nM	470 nM	58 nM	450 nM	CNc1ccc(C2=NNC(=O)CC2)cc1C(F)(F)F [Example 23, 6-[4-(Methylamino)-3-(trifluoromethyl)phenyl]-4,5-dihydropyridazin-3(2H)-one]
34.5 nM	95 nM	17.9 nM	180 nM	O=C1CCC(c2ccc(-c3ccccc3OC(F)(F)F)c(F)c2)=NN1 [Example 44, 6-[2-fluoro-2′-(trifluoromethoxy)[1,1′-biphenyl]-4-yl]-4,5-dihydropyridazin-3(2H)-one]
14.3 nM	390 nM	8.33 nM	420 nM	C/C=C(\C)c1ccc(C2=NNC(=O)CC2)cc1F [Example 36, 6-{4-[(2E)-but-2-en-2-yl]-3-fluorophenyl}-4,5-dihydropyridazin-3(2H)-one]
14.2 nM	31 nM	9.66 nM	33 nM	O=C1CCC(c2ccc(-c3ccncc3)c(F)c2)=NN1 [Example 30, 6-[3-fluoro-4-(pyridin-4-yl)phenyl]-4,5-dihydropyridazin-3(2H)-one]
16.9 nM	76 nM	12.8 nM	120 nM	Nc1cccc(-c2ccc(C3=NNC(=O)CC3)cc2F)c1 [Example 65, 6-(3′-amino-2-fluoro[1,1′-biphenyl]-4-yl)-4,5-dihydropyridazin-3(2H)-one]
